We go through 11 compounds from ChEMBL document CHEMBL1201862, “PubChem BioAssay data set” (2004).

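Compound exposure: 48 hours, 5 concentrations, 96-well plates. GI50 is the concentration that inhibits growth by half.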 Active and inactive are the calls of the source. No stated cut-off is given here; in the data, active = GI50 up to about 1.1 µM and inactive = higher.

Some test systems named below: HCT-15; SN12C; HT-29; SW-620; RXF 393; M14; SNB-75; HOP-62; NCI-H23; SNB-19; DU-145; MDA-MB-231; A549; Hs-578T; SK-MEL-2; T47D; IGROV-1; COLO 205; HL-60; SK-OV-3.
Common to all, as to test: NCI anticancer screen, dose series, 48 h

Take `COc1ccc(OC)c(NC2=NCCO2)c1`: the GI50 is > 100 µM in the assay on HCT-15; > 100 µM (inactive) with SN12C; 62.2 µM (inactive) in the assay with HT-29; 13.6 µM (inactive) in the assay on SW-620; > 100 µM (inactive) in the assay with RXF 393; > 100 µM (inactive) in the assay with M14. The GI50 in the assay with SNB-75 is > 100 µM (inactive); in the assay with HOP-62, > 100 µM (inactive); in the assay on NCI-H23 it was 52.4 µM (inactive); in the assay on SNB-19 it was 10.6 µM (inactive); in the assay with DU-145, > 100 µM (inactive); in the assay with MDA-MB-231 it was > 100 µM (inactive). The GI50 with A549 is > 100 µM (inactive); with Hs-578T, > 100 µM (inactive); in the assay on SK-MEL-2, 18 µM (inactive); with T47D, > 100 µM (inactive); with IGROV-1, > 100 µM (inactive); in the assay on COLO 205, > 100 µM (inactive). Besides, the GI50 in the assay on HL-60 was 83.8 µM (inactive).
Take `Cc1nn(C(=O)c2ccccc2O)c2c1C(c1ccco1)SC(=N)N2` (centres undefined): the GI50 in the assay with HCT-15 was 3.53 µM; in the assay with SN12C, 5.93 µM (inactive); in the assay on HT-29 it was > 10 µM (inactive); in the assay on SW-620, 5.24 µM (inactive); with RXF 393, 7.1 µM (inactive); in the assay on M14 it was 3.5 µM (inactive). Moreover, the GI50 in the assay with SNB-75 was 1.45 µM (inactive); with SK-OV-3 it was 3.3 µM (inactive); in the assay with HOP-62 it was 2.58 µM (inactive); in the assay with NCI-H23 it was > 10 µM (inactive); in the assay on SNB-19, > 10 µM (inactive); with DU-145, 3.63 µM (inactive). Moreover, the GI50 in the assay with MDA-MB-231 is 5.79 µM (inactive); in the assay with A549 it was 4.43 µM (inactive); with Hs-578T, 6.92 µM (inactive); with SK-MEL-2, > 10 µM (inactive); with T47D it was 4.83 µM (inactive); in the assay with IGROV-1, 4.42 µM (inactive). Besides, the GI50 with COLO 205 is 5.83 µM (inactive); with HL-60, 4.94 µM (inactive).
`O=C(Nc1ccccc1)c1cc(S(=O)(=O)n2ccnc2O)c(S)cc1Cl`: the GI50 with HCT-15 was > 100 µM; in the assay with SN12C it was > 100 µM (inactive); in the assay on HT-29, > 100 µM (inactive); in the assay with SW-620, > 100 µM (inactive); in the assay on RXF 393 it was > 100 µM (inactive); in the assay on M14, > 100 µM (inactive). The GI50 was 28.8 µM (inactive) in the assay with SNB-75; > 100 µM (inactive) in the assay on HOP-62; > 100 µM (inactive) in the assay with NCI-H23; > 100 µM (inactive) with SNB-19; > 100 µM (inactive) in the assay with DU-145; > 100 µM (inactive) in the assay on MDA-MB-231. Besides, the GI50 in the assay on A549, in the assay on Hs-578T, with SK-MEL-2, in the assay on T47D, with IGROV-1 and with COLO 205 was > 100 µM (inactive) each time. Further, the GI50 in the assay on HL-60 is > 100 µM (inactive).
On to `COC1=CC(=O)c2c(c(COP(=O)(N(C)CCBr)N(C)CCBr)cn2C)C1=O`, for which the GI50 with HCT-15 was < 0.0234 µM; in the assay on SN12C it was < 0.01 µM (active); in the assay with HT-29, < 0.0219 µM (active); in the assay with SW-620, < 0.0109 µM (active); in the assay with RXF 393 it was 0.0574 µM (active); in the assay with M14 it was < 0.0178 µM (active). Also, the GI50 in the assay with SNB-75 is 0.0826 µM (active); in the assay with SK-OV-3, 0.121 µM (active); in the assay on HOP-62, < 0.0203 µM (active); in the assay with NCI-H23, < 0.0326 µM (active); with SNB-19, 0.141 µM (active); with DU-145, 0.0134 µM (active). Also, the GI50 was 0.296 µM (active) in the assay on MDA-MB-231; < 0.01 µM (active) with A549; 0.392 µM (active) with Hs-578T; 0.15 µM (active) in the assay with SK-MEL-2; 1.31 µM (inactive) with T47D; 1.17 µM (inactive) with IGROV-1. Moreover, the GI50 in the assay on COLO 205 is 0.0521 µM (active); in the assay on HL-60, < 0.01 µM (active).
Turning to `O=C(c1ccco1)N(Cc1cccnc1)C(=S)N(Cc1cccnc1)C(=O)c1ccco1`, the GI50 with HCT-15 is 13 µM; with SN12C, 10.6 µM (inactive); with HT-29, 17.6 µM (inactive); with SW-620, 5 µM (inactive); in the assay on RXF 393, 28.7 µM (inactive); with M14, 12.9 µM (inactive). The GI50 was 38.8 µM (inactive) with SNB-75; 33.6 µM (inactive) in the assay with SK-OV-3; 13.1 µM (inactive) in the assay with HOP-62; 23.8 µM (inactive) in the assay on NCI-H23; 30.8 µM (inactive) in the assay on SNB-19; 19.5 µM (inactive) in the assay on DU-145. Further, the GI50 is 8.75 µM (inactive) with MDA-MB-231; 20.5 µM (inactive) with A549; 23.3 µM (inactive) with Hs-578T; 12.5 µM (inactive) in the assay on SK-MEL-2; 24.5 µM (inactive) with T47D; 4.02 µM (inactive) in the assay with COLO 205. The GI50 in the assay with HL-60 is 15.8 µM (inactive).
`COC(=O)c1ccc(/C=C/C2=CC(=O)C=CC2=O)cc1`: the GI50 is 16.1 µM with HCT-15; 18.9 µM (inactive) with SN12C; 21.5 µM (inactive) with HT-29; 16.8 µM (inactive) with SW-620; 20.4 µM (inactive) in the assay with RXF 393; 24.7 µM (inactive) with M14. For the same compound, the GI50 with SNB-75 is 32.8 µM (inactive); in the assay on HOP-62 it was 50.8 µM (inactive); in the assay on NCI-H23, 18.1 µM (inactive); with SNB-19, 10.5 µM (inactive); in the assay with DU-145 it was 45.1 µM (inactive); in the assay on MDA-MB-231 it was 10.9 µM (inactive). The GI50 was > 63.5 µM (inactive) in the assay on A549; 44.6 µM (inactive) with Hs-578T; 24 µM (inactive) in the assay on SK-MEL-2; 6.35 µM (inactive) in the assay with T47D; 16.7 µM (inactive) in the assay on IGROV-1; 18.7 µM (inactive) with COLO 205. In addition, the GI50 in the assay on HL-60 is 2.37 µM (inactive).
As to `N#CCCN(CCCN(C(=O)N(c1ccccc1)c1ccccc1)c1ccccc1)C(=O)Nc1ccccc1`, the GI50 is > 100 µM with HCT-15; 32.3 µM (inactive) in the assay with HT-29; > 100 µM (inactive) with SW-620; > 100 µM (inactive) in the assay on RXF 393; > 100 µM (inactive) with M14; 14 µM (inactive) in the assay on SNB-75. The GI50 with SK-OV-3, in the assay on HOP-62, in the assay with NCI-H23, in the assay with SNB-19, in the assay with DU-145 and in the assay with MDA-MB-231 was > 100 µM (inactive) throughout. Moreover, the GI50 in the assay on A549 is 18.9 µM (inactive); with Hs-578T, 67.3 µM (inactive); in the assay with SK-MEL-2, > 100 µM (inactive); with T47D, 64.9 µM (inactive); in the assay on COLO 205, > 10 µM (inactive); in the assay on HL-60 it was 8.91 µM (inactive).
On to `CCOC(=O)NC(Nc1ccc(S(=O)(=O)Nc2ccc(OC)nn2)cc1)(C(F)(F)F)C(F)(F)F`, for which the GI50 in the assay with HCT-15 is 49.1 µM; with SN12C, 25.4 µM (inactive); with HT-29 it was 39.1 µM (inactive); in the assay with SW-620, 44.1 µM (inactive); in the assay on RXF 393, 18.2 µM (inactive); in the assay with M14, 18 µM (inactive). For the same compound, the GI50 in the assay on SNB-75 is 26.8 µM (inactive); in the assay on SK-OV-3, 52 µM (inactive); in the assay on HOP-62, 25.8 µM (inactive); in the assay on NCI-H23, 31.3 µM (inactive); with SNB-19, 43.2 µM (inactive); with DU-145, 43.5 µM (inactive). The GI50 with MDA-MB-231 is 18.8 µM (inactive); in the assay with A549 it was 35.3 µM (inactive); with Hs-578T it was 35.2 µM (inactive); in the assay on T47D it was > 100 µM (inactive); in the assay with IGROV-1, 22.8 µM (inactive); in the assay on COLO 205, 21.9 µM (inactive). In addition, in the assay on HL-60, the GI50 is 26.7 µM (inactive).
For the compound `CCOC(=O)/C(=C\c1c[nH]c2ccccc12)P(=O)(OCC)OCC`, the GI50 was 27.7 µM with HCT-15; 30.5 µM (inactive) in the assay on SN12C; 28.4 µM (inactive) in the assay with HT-29; 45.7 µM (inactive) in the assay on SW-620; 33.6 µM (inactive) in the assay on RXF 393; 39.6 µM (inactive) with M14. For the same compound, the GI50 in the assay on SNB-75 is 26.5 µM (inactive); in the assay with SK-OV-3, 30.5 µM (inactive); in the assay with HOP-62, 42.6 µM (inactive); with NCI-H23 it was 29.6 µM (inactive); with SNB-19, 62.7 µM (inactive); with DU-145, 46.1 µM (inactive). The GI50 is 27.7 µM (inactive) with MDA-MB-231; 40.5 µM (inactive) in the assay with A549; 42.8 µM (inactive) in the assay with Hs-578T; 43.8 µM (inactive) with T47D; 39 µM (inactive) in the assay with IGROV-1; 20.7 µM (inactive) in the assay on COLO 205. Besides, the GI50 in the assay with HL-60 was 37.5 µM (inactive).
As for `O=C(c1ccco1)N(C(=O)N1CCC(c2ccccc2)CC1)c1ccccc1`, the GI50 with HCT-15 is 42 µM; with SN12C it was > 100 µM (inactive); with HT-29, 47.6 µM (inactive); in the assay on SW-620, > 100 µM (inactive); in the assay with RXF 393, 34 µM (inactive); in the assay on M14 it was 41.4 µM (inactive). Further, the GI50 in the assay on SNB-75 was 1.95 µM (inactive); in the assay on SK-OV-3, 81.5 µM (inactive); in the assay with NCI-H23 it was 45.7 µM (inactive); in the assay on SNB-19, > 100 µM (inactive); in the assay with DU-145, 83 µM (inactive); in the assay on MDA-MB-231 it was > 100 µM (inactive). Besides, the GI50 in the assay with Hs-578T was 60.4 µM (inactive); in the assay on SK-MEL-2 it was 42.5 µM (inactive); in the assay on T47D, 21.4 µM (inactive); with IGROV-1, 25.9 µM (inactive); in the assay on COLO 205, 39.7 µM (inactive); in the assay on HL-60, 19.3 µM (inactive).
Regarding `O=C(N/N=C\c1ccccc1)Nc1cccc2ccccc12`, the GI50 in the assay with HCT-15 is 74 µM; in the assay with SN12C, 20.3 µM (inactive); in the assay on HT-29 it was 24.3 µM (inactive); in the assay with SW-620, 33.8 µM (inactive); in the assay with RXF 393, 28.1 µM (inactive); in the assay with M14 it was 21.8 µM (inactive). In addition, the GI50 is 18.7 µM (inactive) with SNB-75; 18.5 µM (inactive) in the assay with HOP-62; > 100 µM (inactive) in the assay with NCI-H23; 60.7 µM (inactive) with SNB-19; > 100 µM (inactive) in the assay on DU-145; 91.4 µM (inactive) with MDA-MB-231. For the same compound, the GI50 in the assay on A549 is 26.1 µM (inactive); in the assay on Hs-578T, 22 µM (inactive); in the assay on SK-MEL-2 it was 26.7 µM (inactive); in the assay with T47D, 2.98 µM (inactive); in the assay on IGROV-1 it was 24.7 µM (inactive); in the assay with COLO 205, 48.3 µM (inactive). Further, the GI50 with HL-60 is > 100 µM (inactive).
